# Results published in patent US9078446B2, “Use of N-(tetrazol-4-yl)- or N-(triazol-3-yl)arylcarboxamides or their salts for controlling unwanted plants in areas of transgenic crop plants being tolerant to HPPD inhibitor herbicides” (BAYER INTELLECTUAL PROPERTY GMBH, priority 2011, dated 2015).
# Experiments:
# [1] = test system: Avena sativa HPPD (AvHPPD); assay: Determination of HPPD activity in presence of HPPD inhibitor (percentage of inhibition); assay type: biochemical
# Protocol: (§1) The HPPD activity was checked by the standard spectrophotmetric assay (method extensively described in WO 2009/144079)
# (§2) Level of tolerance of HPPD proteins obtained from different organisms was determined according to the procedure as described in PCT/EP2010/070575.
# (§3) Table E1: Determination of Percentage of Inhibition in Presence of 5.0×10^−6M of Compound “4-137” Compared to the Activity Measured in Absence of Compound No. “4-137” With HPPD Originated from Arabidopsis thaliana (AtHPPD), Mutated Pseudomonas fluorescens PfHPPD-G336W, Avena sativa (AvHPPD), FMP27 (Derived from Kordia algicida) and FMP37 (Derived from Blepharisma japonicum).
# [2] = test system: mutated Pseudomonas fluorescens PfHPPD-G336W; assay: as above; assay type: biochemical
# Protocol: as §1, §2, §3
# [3] = test system: non-transformed tobacco plants (Wt); assay: Symptoms due to herbicide application on tobacco plants (damage classes 0-3); assay type: in vivo; details: 25 g Al/ha, one week after application
# Excerpt: (§4) Seeds harvested from TO transformants will be put on standard soil for germination. Three weeks later plantlets (T1) will be transferred to single pots and grown under standard cultivation conditions (PCT/EP2010/070575, published as WO 2011/076889). Two weeks later, plants were sprayed with several N-(tetrazol-4-yl)- or N-(triazol-3-yl)arylcarboxamides as defined above.
# (§5) Tables F1 to F5: Evaluation of the Symptoms Observed Due to the Application of the Herbicides on Transgenic Tobacco Plants, Expressing the Mutant Pseudomonas fluorescens HPPD G336W, the Avena HPPD (AvHPPD), the HPPD from Kordia algicida FMP27 or the HPPD from Blepharisma japonicum (FMP37), Compared to Non-Tranformed Tobacco Plants (“Wt”).
# (§6) The herbicides (with “g Al/ha” meaning “g active ingredient/ha”) were applied on 8 to 10 plants originated from 1 to 3 independent transgenic events per transgene.
# (§7) The symptoms were evaluated and classified as following: • 3=Very strong damage • 2=Strong damage • 1=Light and transient damage • 0=No damage
# [4] = test system: transgenic tobacco plants expressing tolerant HPPD enzymes; assay: Tolerance of tobacco plants expressing tolerant HPPD enzymes (all transgenes); assay type: in vivo
# Excerpt: Genes coding for the selected HPPD were obtained from a member of the group of organisms consisting of Avena sativa, Pseudomonas fluorescens mutant G336W, Blepharisma japonicum and Kordia algicida and cloned into the binary vector pBin19 allowing the integration of DNA into the tobacco genome, under the control of the CaMV35S promoter. For the cloning procedures, see A2 above for Avena sativa, see B2 above for Pseudomonas fluorescens, mutant G336W, see PCT/EP2010/070567 (published as WO 2011/076882, Example 5; for Blepharisma japonicum (FMP37) and see PCT/EP2010/070575, Example 5 for Kordia algicida (FMP27). Between the sequence corresponding to the promoter and the sequence coding for the HPPD a DNA sequence coding for a transit peptide to the chloroplast was inserted, in order to add at the N-terminal extremity of the protein a target signal to allow the localization of the HPPD protein into the plant chloroplast.
# as §4, §5, §6, §7
# [5] = test system: soybean plants expressing Pseudomonas fluorescens G336W mutant, FMP 27 and FMP 37; assay: Tolerance to HPPD inhibitors of soybean plants expressing tolerant HPPD enzymes; assay type: in vivo; details: T1 soybean plants; one week after application
# Excerpt: (§8) Genes coding for the selected HPPD were obtained from a member of the group of organisms consisting of Blepharisma japonicum and Kordia algicida and cloned into an appropriate binary vector allowing the integration of DNA into the soybean genome, under the control of the CaMV35S promoter. For the respective cloning procedures, see WO2011076882 (PCT/EP2010/070567), Example 9; for Blepharisma japonicum (FMP37) and WO2011076889 (PCT/EP2010/070575), Example 9 for Kordia algicida (FMP27).
# Between the sequence corresponding to the promoter and the sequence coding for the HPPD a DNA sequence coding for a transit peptide to the chloroplast was inserted, in order to add at the N-terminal extremity of the protein a target signal to allow the localization of the HPPD protein into the plant chloroplast. By using the vectors “pFCO112” (Blepharisma japonicum, WO2011076882), pFCO116 (Korida algicida, WO2011076889), and pFCO117” (see Example B2, above), soybean transformation was achieved as described in Example 10 of WO2011076882 (PCT/EP2010/070567) for Blepharisma japonicum (FMP37) and WO2011076889 (PCT/EP2010/070575) for Kordia algicida (FMP27). Seeds from TO events showing tolerance to tembotrione were harvested.
# T1 Soybean seeds were transferred to single pots and grown under standard cultivation conditions, see WO2011076882.
# Two weeks later, plants will be sprayed with several N-(tetrazol-4-yl)- or N-(triazol-3-yl)arylcarboxamides as defined above.
# [6] = test system: cotton plants expressing FMP 27 and FMP 37; assay: Tolerance to HPPD inhibitors of cotton plants expressing tolerant HPPD enzymes; assay type: in vivo; details: T1 cotton plants; one week after application
# Excerpt: as §8, with “the cotton” for “the soybean”, “Example 11;” for “Example 9;”, “Example 11” for “Example 9”
# Between the sequence corresponding to the promoter and the sequence coding for the HPPD a DNA sequence coding for a transit peptide to the chloroplast was inserted, in order to add at the N-terminal extremity of the protein a target signal to allow the localization of the HPPD protein into the plant chloroplast. Cotton transformation was achieved as described in Example 12 of WO2011076882 (PCT/EP2010/070567) for Blepharisma japonicum (FMP37) and WO2011076889 (PCT/EP2010/070575) for Kordia algicida (FMP27). Seeds from T0 events showing tolerance to tembotrione were harvested.
# T1 Cotton seeds were transferred to single pots and grown under standard cultivation conditions, see WO2011076882 (PCT/EP2010/070567) for Blepharisma japonicum (FMP37) and WO2011076889 (PCT/EP2010/070575) for Kordia algicida (FMP27).
# At least 4 weeks later, plants will be sprayed with several N-(tetrazol-4-yl)- or N-(triazol-3-yl)arylcarboxamides as defined above.
compound,measurement,setting,value
Cc1c(C(=O)Nc2nnnn2C)ccc(C(F)(F)F)c1S(C)(=O)=O [Compound 4-137],Inhibition %,"[1]; 5.0×10^−6M of compound, compared to activity in absence of compound, AvHPPD",93%
same,tolerance/sensitivity of the HPPD to the inhibitor compared to Arabidopsis thaliana HPPD,"[1]; AvHPPD versus AtHPPD, identical experimental conditions",less sensitive
same,Inhibition %,"[2]; 5.0×10^−6M of compound, compared to activity in absence of compound, PfHPPD-G336W",92%
same,tolerance/sensitivity of the HPPD to the inhibitor compared to Arabidopsis thaliana HPPD,"[2]; PfHPPD-G336W versus AtHPPD, identical experimental conditions",less sensitive
same,number of plants with Damage 0 (No damage),[3],0
same,number of plants with Damage 1 (Light and transient damage),[3],0
same,number of plants with Damage 2 (Strong damage),[3],0
same,number of plants with Damage 3 (Very strong damage),[3],10
same,tolerance of the transgenic tobacco plants (symptoms due to application of the herbicide),"[4]; T1 plants sprayed, evaluated one week after application",good tolerance
same,sensitivity of transgenic tobacco plants compared to wild type (wt) plants,"[4]; all tested independent lines, agronomically relevant dose",less sensitive
same,tolerance of transgenic plants compared to the wild-type soybean plants,[5],superior tolerance
same,tolerance of transgenic plants compared to the wild-type cotton plants,[6],superior tolerance
